Values after ≈ are worked out from the molar mass of the structure shown.
Experiments:
Staphylococcus aureus = experiment: Antimicrobial activity against Staphylococcus aureus at 100 ug/disk; format: functional; settings: read-out: IZ
L1210 = experiment: Cytotoxicity against mouse L1210 cells; format: functional, cell-based

`COC1=C(C)C(=O)c2ccnc(CO)c2C1=O` [RENIEROL] showed a zone of inhibition at 100 µg/disc (Staphylococcus aureus) of 10 mm and an IC50 (L1210) of 3 µg/mL (≈ 12.9 µM).
